From paper PMC8443589, “Modelling human liver fibrosis in the context of non-alcoholic steatohepatitis using a microphysiological system” (Communications Biology, 2021)

Tests used:
[1] = system: liver MPS NASH model (PHH, KC and HSC co-cultures); experiment: Cue study: secreted cytokines and chemokines (Luminex) with varying NPC number and added cues (Fig 5a, 5b); type: cell-based, human; conditions: for EGF relative expression (z-transformation) / Eotaxin relative expression (z-transformation) / FGF-2 relative expression (z-transformation) / Fit-3L relative expression (z-transformation) / Fractalkine relative expression (z-transformation) / G-CSF relative expression (z-transformation) / GM-CSF relative expression (z-transformation) / GRO relative expression (z-transformation) / IFN-a2 relative expression (z-transformation) / IL-1RA relative expression (z-transformation) / IL-4 relative expression (z-transformation) / IL-6 relative expression (z-transformation) / IL-7 relative expression (z-transformation) / IL-8 relative expression (z-transformation) / IL-15 relative expression (z-transformation) / IP-10 relative expression (z-transformation) / MCP-1 relative expression (z-transformation) / MCP-3 relative expression (z-transformation) / MDC relative expression (z-transformation) / MIP-1a relative expression (z-transformation) / MIP-1b relative expression (z-transformation) / TNFa relative expression (z-transformation) / VEGF relative expression (z-transformation): Fat media + cue
From the text: There is only limited understanding of the pathogenic drivers of NASH and their interaction, principally due to a lack of translational models that are amenable to detailed molecular analysis[2],[34]. Here, a systems biology ‘cue-signal-analysis’ paradigm[35],[36] was utilised to produce large factorial datasets to enable the identification of molecular pathways of importance. […] To create varying set ups of the NASH microtissues we created hepatocyte microtissues in the MPS with high numbers of NPC (60,000 KC and HSC—equivalent to 10% of microtissue population) and low numbers of NPCs (6000 KC and HSC—equivalent to 1% of microtissue), representing physiological and non-physiological cell ratios respectively. Next, we took these different microtissues and cultured them in media with or without FFA. Finally, we supplemented the media with lipopolysaccharide (LPS), TGFβ, fructose or cholesterol either as single ‘cues’, in pairs or all together (Fig. 4a). ‘Cues’ were selected for clinical association with NASH. LPS, is a pleiotropic inflammatory molecule, it is proposed to reach the liver via the hepatic portal vein after release from the gastrointestinal tract, contributing to disease progression[37],[38]. TGFβ has been extensively studied in relation to fibrosis due to its regulation of genes controlling collagen and matrix-modifying enzymes. Fructose is a key substrate for de-novo lipogenesis, a process that has been identified as a key event in lipid accumulation within NAFLD patients. Finally, cholesterol accumulation has also been linked to NASH disease aetiology.
Assessment of gene expression changes was supplemented by assessment of the secretome produced by NASH microtissues in the MPS after exposure to the various cues. Increased pro-inflammatory cytokine secretion is a defining characteristic in NASH patients, so we conducted a Luminex cytokine array covering 42 different biomarkers, cytokines and chemokines secreted into the culture media of the different microtissues at multiple time points. […]

[2] = system: liver MPS NASH model (PHH, KC and HSC co-cultures); experiment: Cue study: pro-fibrotic biomarkers TIMP-1, pro-collagen 1, fibronectin (Fig 5c); type: cell-based, human; conditions: fat medium + cue
From the text: Assessment of gene expression changes was supplemented by assessment of the secretome produced by NASH microtissues in the MPS after exposure to the various cues. Increased pro-inflammatory cytokine secretion is a defining characteristic in NASH patients, so we conducted a Luminex cytokine array covering 42 different biomarkers, cytokines and chemokines secreted into the culture media of the different microtissues at multiple time points. We consistently detected 27 out of the 42 biomarkers and observed that there was differential expression of cytokines and chemokines driven by the different cues applied to the micro-tissue (Fig. 5a, b). The LPS cue and the presence of higher NPC numbers were responsible for driving the largest increase in cytokine and chemokine release, with the largest increases in cytokines measured on day 14 (Fig. 5b). […] Similarly, to the cytokine production, these changes were not further enhanced by combining cues, as all the cue combinations containing TGFβ had the highest expression (Supp. Fig. 17c).
Fig. 5 Systems biology interrogation of liver MPS NASH model to determine physiologically relevant cues that promote soluble biomarker changes to mimic advanced NASH disease state. PHH, KC and HSC co-cultures were cultured in the MPS platform under a variety of conditions for 14 days to test number of NPCs, presence of fat, fructose, cholesterol, LPS and TGFβ for effects on the soluble biomarker profile of the liver MPS NASH model. Expression of biomarkers, cytokines and chemokines were compared, all concentrations were normalised by Z-transformation to allow comparison and shown relative to mean for each marker (white = not detected). a Cytokine expression compared with varying levels of NPCs; b for the high NPC group in the presence of additional cues; c Expression of pro-fibrotic biomarkers with varying NPC content and with additional varying cues in high NPC condition (additional data in Supp. Fig. 17). d Graphical summary of the changes that occur in the NASH model in the presence of Fat and Fat + TGFβ. All data were generated from a minimum of three independent replicate samples per condition.
The MPS LC12 plates consists of 12 individual bioreactors that contain pneumatically driven micro-pumps to recirculate cell culture medium through a collagen-coated scaffold. Cells were cultured using the protocol previously described[20],[21], but briefly, PHH were seeded at a density of 6 × 10^5 viable cells per well on the LC12 plates with each NPC population (KC and/or HSC) at a density of 6 × 10^4 viable cells per well. Each well contained a final volume of 1.6 mL of medium per well and maintained under a flow rate of 1.0 µL/s. Cells were seeded in Williams E medium containing primary hepatocyte thawing and plating supplements (Life Technologies, USA) and cultured initially under downward flow for 8 h before the flow was automatically reversed to upward flow for the next 16 h of culture. Microtissues were then cultured in either HEP-Lean or HEP-Fat medium, both media’s are proprietary to CN Bio Innovations Ltd. The HEP-Fat medium is a derivative of the HEP-LEAN medium and contains a mixture of saturated and unsaturated FFAs, as well as physiologically relevant quantities of insulin and sugars. Complete media changes were performed on all wells every 48–72 h. For certain experiments, the media was supplemented with additional additives from day 4 onwards: 1 ng/ml LPS (lipopolysaccharides from Escherichia coli O111:B4) (Sigma Aldrich, UK), 1 ng/ml recombinant TGF beta 1 protein (Abcam, UK); 500 µM Fructose (Sigma Aldrich, UK), 50 µg/ml Cholesterol (Sigma Aldrich, UK). […]

For `O=C(CO)[C@@H](O)[C@H](O)[C@H](O)CO` [Fructose], the “EGF relative expression (z-transformation)” value ([1]; Day 6) was -1.038, the “Eotaxin relative expression (z-transformation)” value (“Eotaxin relative expression” for short) ([1]; Day 6) was -0.782 and the “FGF-2 relative expression (z-transformation)” value (from here on “FGF-2 relative expression”) ([1]; Day 6) was -1.187. The “Fit-3L relative expression (z-transformation)” value (“Fit-3L relative expression” below) ([1]; Day 6) was -0.2857, the “Fractalkine relative expression (z-transformation)” value (“Fractalkine relative expression” below) ([1]; Day 6) was -0.2691 and the “G-CSF relative expression (z-transformation)” value (“G-CSF relative expression” for short) ([1]; Day 6) was -0.36. For the same compound, the “GM-CSF relative expression (z-transformation)” value (“GM-CSF relative expression” below) ([1]; Day 6) was -0.4175, the “GRO relative expression (z-transformation)” value (“GRO relative expression” below) ([1]; Day 6) was -0.4254 and the “IFN-a2 relative expression (z-transformation)” value (“IFN-a2 relative expression” for short) ([1]; Day 6) was 0.2777. The “IL-1RA relative expression (z-transformation)” value (“IL-1RA relative expression” for short) ([1]; Day 6) was 0.2038, the “IL-4 relative expression (z-transformation)” value (“IL-4 relative expression” for short) ([1]; Day 6) was -1.323 and the “IL-6 relative expression (z-transformation)” value (shortened to “IL-6 relative expression”) ([1]; Day 6) was -0.4543. The “IL-7 relative expression (z-transformation)” value (“IL-7 relative expression” below) ([1]; Day 6) was -0.8373, the “IL-8 relative expression (z-transformation)” value (from here on “IL-8 relative expression”) ([1]; Day 6) was 0.2742 and the “IL-15 relative expression (z-transformation)” value (shortened to “IL-15 relative expression”) ([1]; Day 6) was -0.4814. For the same compound, the “IP-10 relative expression (z-transformation)” value (“IP-10 relative expression” for short) ([1]; Day 6) was -0.2708, the “MCP-1 relative expression (z-transformation)” value (“MCP-1 relative expression” below) ([1]; Day 6) was 0.3757 and the “MCP-3 relative expression (z-transformation)” value (shortened to “MCP-3 relative expression”) ([1]; Day 6) was -0.2673. For the same compound, the “MDC relative expression (z-transformation)” value (“MDC relative expression” for short) ([1]; Day 6) was 1.214, the “MIP-1a relative expression (z-transformation)” value (from here on “MIP-1a relative expression”) ([1]; Day 6) was 0.03503 and the “MIP-1b relative expression (z-transformation)” value (“MIP-1b relative expression” for short) ([1]; Day 6) was -0.1641. The “TNFa relative expression (z-transformation)” value (“TNFa relative expression” for short) ([1]; Day 6) was -0.2082, the “VEGF relative expression (z-transformation)” value (shortened to “VEGF relative expression”) ([1]; Day 6) was 1.537 and the “EGF relative expression (z-transformation)” value ([1]; Day 11) was -0.1015. The “Eotaxin relative expression” value ([1]; Day 11) was 0.09562, the “FGF-2 relative expression” value ([1]; Day 11) was -0.4563 and the “Fit-3L relative expression” value ([1]; Day 11) was 1.324. For the same compound, the “Fractalkine relative expression” value ([1]; Day 11) was 0.9874, the “G-CSF relative expression” value ([1]; Day 11) was -1.298 and the “GM-CSF relative expression” value ([1]; Day 11) was -0.6. For the same compound, the “GRO relative expression” value ([1]; Day 11) was -0.3142, the “IFN-a2 relative expression” value ([1]; Day 11) was 0.6908 and the “IL-1RA relative expression” value ([1]; Day 11) was 0.879. The “IL-4 relative expression” value ([1]; Day 11) was -0.3331, the “IL-6 relative expression” value ([1]; Day 11) was -0.2984 and the “IL-7 relative expression” value ([1]; Day 11) was -0.3548. The “IL-8 relative expression” value ([1]; Day 11) was -0.6705, the “IL-15 relative expression” value ([1]; Day 11) was 0.3314 and the “IP-10 relative expression” value ([1]; Day 11) was -0.257. The “MCP-1 relative expression” value ([1]; Day 11) was 0.4252, the “MCP-3 relative expression” value ([1]; Day 11) was -0.08763 and the “MDC relative expression” value ([1]; Day 11) was 0.03858. The “MIP-1a relative expression” value ([1]; Day 11) was -0.4174, the “MIP-1b relative expression” value ([1]; Day 11) was 0.1119 and the “TNFa relative expression” value ([1]; Day 11) was -0.3492. The “VEGF relative expression” value ([1]; Day 11) was -0.07553, the “EGF relative expression (z-transformation)” value ([1]; Day 14) was -0.09066 and the “Eotaxin relative expression” value ([1]; Day 14) was 1.581. The “FGF-2 relative expression” value ([1]; Day 14) was 0.5869, the “Fit-3L relative expression” value ([1]; Day 14) was 1.267 and the “Fractalkine relative expression” value ([1]; Day 14) was 0.9131. The “G-CSF relative expression” value ([1]; Day 14) was 0.4426, the “GM-CSF relative expression” value ([1]; Day 14) was -0.06657 and the “GRO relative expression” value ([1]; Day 14) was 0.04245. The “IFN-a2 relative expression” value ([1]; Day 14) was 2.403, the “IL-1RA relative expression” value ([1]; Day 14) was 1.114 and the “IL-4 relative expression” value ([1]; Day 14) was 0.7104. For the same compound, the “IL-6 relative expression” value ([1]; Day 14) was 0.4182, the “IL-7 relative expression” value ([1]; Day 14) was 1.313 and the “IL-8 relative expression” value ([1]; Day 14) was 0.7194. The “IL-15 relative expression” value ([1]; Day 14) was 1.407, the “IP-10 relative expression” value ([1]; Day 14) was 0.8479 and the “MCP-1 relative expression” value ([1]; Day 14) was 2.011. For the same compound, the “MCP-3 relative expression” value ([1]; Day 14) was 1.298, the “MDC relative expression” value ([1]; Day 14) was 0.1904 and the “MIP-1a relative expression” value ([1]; Day 14) was 0.03023. For the same compound, the “MIP-1b relative expression” value ([1]; Day 14) was 0.8239, the “TNFa relative expression” value ([1]; Day 14) was 0.4054 and the “VEGF relative expression” value ([1]; Day 14) was -1.095. For the same compound, the “IP-10 production” value ([1]; day 15) was “biggest increase”, the “Fibronectin (Fold change in cytokine production compared to control)” value ([2]; Day 6, high NPC) was 1.389 and the “Pro-collagen 1 (Fold change in cytokine production compared to control)” value ([2]; Day 6, high NPC) was 2.273. The “TIMP-1 (Fold change in cytokine production compared to control)” value ([2]; Day 6, high NPC) was 1.299, the “Fibronectin (Fold change in cytokine production compared to control)” value ([2]; Day 11, high NPC) was 0.7381 and the “Pro-collagen 1 (Fold change in cytokine production compared to control)” value ([2]; Day 11, high NPC) was 1.299. The “TIMP-1 (Fold change in cytokine production compared to control)” value ([2]; Day 11, high NPC) was 0.1393, the “Fibronectin (Fold change in cytokine production compared to control)” value ([2]; Day 14, high NPC) was 0.7006 and the “Pro-collagen 1 (Fold change in cytokine production compared to control)” value ([2]; Day 14, high NPC) was 0.7125. The “TIMP-1 (Fold change in cytokine production compared to control)” value ([2]; Day 14, high NPC) was 0.2326.
